From ChEMBL document CHEMBL1127202, “Endothelin receptor ligands. replacement net approach to SAR determination of potent hexapeptides” (Bioorg Med Chem Lett, 1993)
Residues, ends and D or L forms follow the SMILES beside them.

Legend:
Endothelin-1 receptor [1] = target: T1, Endothelin-1 receptor (Mus musculus, UniProt Q61614); assay: Inhibition of [125I]ET1 binding to Endothelin A receptor of murine 3T3 cells; format: cell-based, NIH3T3
T1 sequence (Q61614 whole entry): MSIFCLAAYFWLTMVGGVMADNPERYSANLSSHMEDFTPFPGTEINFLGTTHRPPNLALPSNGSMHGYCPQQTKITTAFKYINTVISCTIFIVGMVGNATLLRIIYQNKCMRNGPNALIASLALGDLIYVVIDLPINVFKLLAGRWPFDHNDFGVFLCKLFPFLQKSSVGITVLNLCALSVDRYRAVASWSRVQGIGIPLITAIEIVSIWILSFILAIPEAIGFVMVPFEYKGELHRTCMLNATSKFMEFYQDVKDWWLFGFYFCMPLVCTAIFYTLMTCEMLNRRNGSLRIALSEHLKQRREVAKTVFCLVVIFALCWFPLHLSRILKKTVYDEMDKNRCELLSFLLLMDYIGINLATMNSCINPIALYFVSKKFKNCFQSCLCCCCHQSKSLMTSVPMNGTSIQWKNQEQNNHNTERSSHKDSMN

Endothelin-1 receptor [2] = target: T2, Endothelin-1 receptor (Homo sapiens, UniProt P25101); assay: The inhibitory constant was evaluated against Endothelin A receptor
T2 sequence (P25101 whole entry): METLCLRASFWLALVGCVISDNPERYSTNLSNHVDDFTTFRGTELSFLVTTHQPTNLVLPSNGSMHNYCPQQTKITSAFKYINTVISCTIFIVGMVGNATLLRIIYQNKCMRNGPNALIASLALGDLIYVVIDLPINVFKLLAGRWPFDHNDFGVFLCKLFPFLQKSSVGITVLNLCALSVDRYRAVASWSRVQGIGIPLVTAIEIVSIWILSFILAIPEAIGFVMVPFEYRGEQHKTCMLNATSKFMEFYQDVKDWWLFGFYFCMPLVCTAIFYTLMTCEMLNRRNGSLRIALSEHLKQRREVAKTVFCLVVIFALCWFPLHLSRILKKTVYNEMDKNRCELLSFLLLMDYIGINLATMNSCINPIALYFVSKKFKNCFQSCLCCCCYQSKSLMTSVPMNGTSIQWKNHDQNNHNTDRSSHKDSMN

Endothelin-1 receptor [3] = target: T1, Endothelin-1 receptor; assay: The compound was tested for the binding affinity against eEndothelin A receptor in murine 3T3 cells using [125I]ET1 as a radioligand; format: cell-based, NIH3T3

| SMILES | IC50 (Endothelin-1 receptor [1]) | further results |
| --- | --- | --- |
| CC[C@H](C)[C@H](NC(=O)[C@H](CC(=O)O)NC(=O)[C@H](Cc1c[nH]c2ccccc12)NC(=O)[C@@H](Cc1ccccc1)NC(C)=O)C(=O)N[C@H](C(=O)N[C@@H](Cc1c[nH]c2ccccc12)C(=O)O)[C@@H](C)CC | 79 nM |  |
| CC[C@H](C)[C@H](NC(=O)[C@H](CC(=O)O)NC(=O)CN(Cc1ccccc1)C(=O)[C@@H](Cc1ccccc1)NC(C)=O)C(=O)N[C@H](C(=O)N[C@@H](Cc1c[nH]c2ccccc12)C(=O)O)[C@@H](C)CC | 12 nM | IC50 (Endothelin-1 receptor [2]): 30 nM |
| CC[C@H](C)[C@H](NC(=O)[C@H](CC(=O)O)NC(=O)[C@H](CCCN)NC(=O)[C@@H](Cc1c[nH]c2ccccc12)NC(C)=O)C(=O)N[C@H](C(=O)N[C@@H](Cc1c[nH]c2ccccc12)C(=O)O)[C@@H](C)CC | 15 nM |  |
| CC[C@H](C)[C@H](NC(=O)[C@H](CC(=O)O)NC(=O)[C@H](CC(N)=O)NC(=O)[C@@H](Cc1ccccc1)NC(C)=O)C(=O)N[C@H](C(=O)N[C@@H](Cc1c[nH]c2ccccc12)C(=O)O)[C@@H](C)CC | 75 nM |  |
| CC[C@H](C)[C@@H](NC(=O)[C@@H](CC(=O)O)NC(=O)[C@H]1CCCN1C(=O)[C@@H](Cc1ccccc1)NC(C)=O)C(=O)N[C@@H](C(=O)N[C@H](Cc1c[nH]c2ccccc12)C(=O)O)[C@@H](C)CC |  | IC50 (Endothelin-1 receptor [2]): 15 nM; IC50 (Endothelin-1 receptor [1]; nih3t3): 45 nM |
| CC[C@H](C)[C@H](NC(=O)[C@H](CC(=O)O)NC(=O)[C@H](CCc1ccccc1)NC(=O)[C@@H](Cc1ccccc1)NC(C)=O)C(=O)N[C@H](C(=O)N[C@@H](Cc1c[nH]c2ccccc12)C(=O)O)[C@@H](C)CC | 70 nM |  |
| CC[C@H](C)[C@H](NC(=O)[C@H](CC(=O)O)NC(=O)[C@H](C)NC(=O)[C@@H](Cc1ccccc1)NC(C)=O)C(=O)N[C@H](C(=O)N[C@@H](Cc1c[nH]c2ccccc12)C(=O)O)[C@@H](C)CC (HELM PEPTIDE1{[ac].[dF].A.D.I.I.W}$$$$V2.0) | 57 nM |  |
| CC[C@H](C)[C@H](NC(=O)[C@H](CC(=O)O)NC(=O)[C@H](Cc1ccccc1)NC(=O)[C@@H](Cc1ccccc1)NC(C)=O)C(=O)N[C@H](C(=O)N[C@@H](Cc1c[nH]c2ccccc12)C(=O)O)[C@@H](C)CC (HELM PEPTIDE1{[ac].[dF].F.D.I.I.W}$$$$V2.0) | 270 nM |  |
| CC[C@H](C)[C@H](NC(=O)[C@H](CC(=O)O)NC(=O)[C@H](CCCN)NC(=O)[C@@H](Cc1ccccc1)NC(C)=O)C(=O)N[C@H](C(=O)N[C@@H](Cc1c[nH]c2ccccc12)C(=O)O)[C@@H](C)CC (HELM PEPTIDE1{[ac].[dF].[Orn].D.I.I.W}$$$$V2.0) |  | IC50 (Endothelin-1 receptor [3]): 230 nM |
| CC[C@H](C)[C@H](NC(=O)[C@H](CC(=O)O)NC(=O)[C@@H](Cc1ccccc1)NC(=O)[C@@H](Cc1ccccc1)NC(C)=O)C(=O)N[C@H](C(=O)N[C@@H](Cc1c[nH]c2ccccc12)C(=O)O)[C@@H](C)CC (HELM PEPTIDE1{[ac].[dF].[dF].D.I.I.W}$$$$V2.0) | 98 nM |  |

The next lines start with results.

| IC50 (Endothelin-1 receptor [1]) | SMILES | further results |
| --- | --- | --- |
| 77 nM | CC[C@H](C)[C@H](NC(=O)[C@H](CC(=O)O)NC(=O)[C@H](Cc1ccc(O)cc1)NC(=O)[C@@H](Cc1ccccc1)NC(C)=O)C(=O)N[C@H](C(=O)N[C@@H](Cc1c[nH]c2ccccc12)C(=O)O)[C@@H](C)CC |  |
| 26 nM | CC[C@H](C)[C@H](NC(=O)[C@H](CC(=O)O)NC(=O)[C@H](CCCN)NC(=O)[C@@H](Cc1ccc(O)cc1)NC(C)=O)C(=O)N[C@H](C(=O)N[C@@H](Cc1c[nH]c2ccccc12)C(=O)O)[C@@H](C)CC | IC50 (Endothelin-1 receptor [2]): 400 nM |
| 114 nM | CC[C@H](C)[C@H](NC(=O)[C@H](CCc1ccccc1)NC(=O)[C@H](CC(=O)O)NC(=O)[C@H](CCCN)NC(=O)[C@@H](Cc1ccccc1)NC(C)=O)C(=O)N[C@@H](Cc1c[nH]c2ccccc12)C(=O)O |  |
